Experimental data: paper PMC6630718, “Discovery of Novel UV-Filters with Favorable Safety Profiles in the 5-Arylideneimidazolidine-2,4-dione Derivatives Group” (Molecules, 2019)

Columns and labels:
[1] = Ultraviolet spectroscopy in methanol solutions; assay type: physicochemical; settings: for Absorption Range: scan range 290–400 nm
Protocol: Spectra with a scan range of 290–400 nm were recorded in 50 or 25 μM methanol solutions, in 1 cm path length, 1.5 mL quartz cuvettes on a U-2800 double beam spectrophotometer (Hitachi, Tokyo, Japan) controlled by UV Solution version 2.2 software. The molar extinction coefficient at maximum absorption (εmax) of tested compounds was determined in methanol as the slope of the linear regression of absorbance vs. concentration of tested compound (from 10 to 50 μM or 2.5 to 30 μM).

[2] = Photostability in methanol solutions (solar light simulator); assay type: physicochemical; design: λmax pre-irradiation: unit not given beside the values; settings: methanol solution; for % of initial AUC post-irradiation / λmax post-irradiation: 1h irradiation at 500 W/m2
Protocol: (§1) The photostability evaluation of compounds was performed both in methanol solutions and in macrogol formulations. Irradiation of samples according to previous studies was conducted for 1 h at 500 W/m^2 (cumulative dose of ultraviolet radiation 218 kJ/m^2) with solar light simulator (Suntest CPS+, Atlas, Linsengericht, Germany) equipped with an optical filter cutting off wavelengths shorter than 290 nm and IR-block filter to neutralize thermal effects. The UV absorption spectrum of the samples were analysed post-irradiation and compared with pre-irradiation results. UPLC-MS/MS analyses were also performed.
(§2) Methanol solutions were tested at concentration 25 or 50 µM in quartz cuvettes with the PTFE stopper to prevent evaporation or leaking of the solvent. Macrogol formulations (2% w/w) were tested on PMMA plates (1.3 mg/cm^2). After post-irradiation measure of UV absorption, exposed and unexposed plates were washed with 5 mL of methanol, then mixtures were filtered and analysed by UPLC-MS/MS. All analyses were performed in duplicates.

[3] = Solubility in cosmetic solvents / macrogol formulations; assay type: physicochemical; settings: typical cosmetic solvents / formulations used
Text: (§3) The composition of formulations and concentration of tested compounds were based on their limited solubility. N-monosubstituted compounds 2a–2e were insoluble at desirable concentrations in the typical solvents used in cosmetic formulations such as alcohols, triacetin, surfactants, and co-surfactants. To dissolve compounds 2a and 2b before incorporation to the formulation DMSO: Tween 20 (1:9 w/w) was used, for less soluble 2c–2e it was necessary to use DMSO alone as solvent. […] Thus the detailed composition of the formulations is as follows: F1–Tween 20 43.2%, PEG-400 25%, PEG-1500 25%, Triacetin 4.8%, tested compound 2%; F2–Tween 20 43.2%, PEG-400 25%, PEG-1500 25%, DMSO 4.8%, tested compound 2%; F3–PEG-400 25%, PEG-1500 25%, DMSO 48%, tested compound 2%. Considering the disadvantages of currently reported macrogol formulations and the low concentration achieved for the tested compounds (2%), we plan to work on cosmetic emulsions containing the most promising derivatives at higher concentrations as well as required excipients including preservatives, antioxidants, etc. This research will be carried out in the near future.

[4] = Photostability in macrogol formulations on PMMA plates (solar light simulator); assay type: physicochemical
Protocol: After irradiation of thin layer of formulations applied on PMMA plates, their photoprotective parameters were determined and compared with the pre-irradiation results. The study gives an overview on functional photostability of the tested compounds. It is an important test, because the photostability of some compounds in low concentrated solutions may meaningfully differ from results obtained for higher concentrations used in sunscreen products. […] In the present study both UVB and UVA-absorbers were tested, so the changes in SPFin vitro, UVA PF and AUC after irradiation are taken into account as a measure of photostability.
as §1, §2

[5] = In vitro photoprotection study of 2% (w/w) macrogol formulations on PMMA plates
Text: as §3
Tested compounds and commercial UV filters as reference standards were incorporated to a neutral macrogel formulation in the concentration of 2%. Prior to the incorporation, compounds 3a–3e and 4f–4h and reference UV-filters were dissolved in a triacetin:Tween 20 (1:9) solvent system. For compounds 2a–2e it was necessary to use DMSO. The final composition of the macrogol formulations is presented in the photoprotective activity section.
In vitro photoprotection study was performed according to EN ISO 24443:2012 [71] with slight modifications. Formulation with tested compound (32.5 mg) was applied on a polymethylmethacrylate plate (PMMA) with the application area 25 cm^2 and 5 µm roughness value to simulate the skin surface (Schonberg GmbH, Hamburg, Germany). As a reference a PMMA plate treated with approximately 15 µL of glycerin was used. Measurements were carried out by reflectance spectrophotometry with SPF-290AS Analyser (Solar Light Company, Glenside, PA, USA) equipped with integrating sphere controlled by WinSPF version X.X. software. For each sample two plates were prepared, absorbance measures were performed on 6 different positions of the plate from 290 to 400 nm with 1 nm steps. The results were expressed as an average of data from 12 scans.

[6] = In vitro stability in mouse liver microsomes; assay type: in vitro ADME; settings: mouse liver microsomes; for half-life at 20 µM / microsomal CLint at 20 µM: mouse; for half-life at 20 µM: pH 7.4, mouse liver microsomes 0.8 mg/mL, 20 µM compound, NADPH-regenerating system, 37 °C, read-out: t ½; for microsomal CLint at 20 µM: pH 7.4, mouse liver microsomes, calculated from t1/2
Protocol: Mouse liver microsomes (MLMs) were used to investigate the phase I metabolism of selected compounds (2c, 2d, 3b, 4g, 5a) and the reference substance BP-2. Samples composed of test compound (20 µM), MLMs (0.8 mg/mL) and potassium phosphate buffer (100 mM, pH 7.4) were preincubated prior to addition of NADPH-regenerating system. NADPH-regenerating system contained NADP, glucose-6-phosphate, glucose-6-phosphate dehydrogenase and potassium phosphate buffer (100 mM, pH 7.4). Control incubations were performed in the absence of the NADPH-regenerating system and in case of esters (2c, 2d, 3b and 4g) without the mouse liver microsomes solution to determine spontaneous hydrolysis. Incubations were conducted at 37 °C for at least 15 min up to 60 min. The reactions were stopped by the addition of 250 μL ice-cold methanol containing internal standard PTX (20 μM). The mixture was then centrifuged. Supernatant analysis was performed using UPLC/MS (Waters Corporation). The assays were repeated two times. The in vitro half times (t1/2) for test compounds were determined from the slope of the linear regression of ln % parent compound remaining versus incubation time. The calculated t1/2 was incorporated into the following equation to obtain intrinsic clearance: (Clint) = (volume of incubation [µL]/ protein in the incubation [mg]) × 0.693 / t1/2 [74].

[7] = Neurocytotoxicity, MTT assay; assay type: cell-based; settings: human, SH-SY5Y neuroblastoma cells, highest concentration (50 µM), read-out: cell viability (% of control)
Protocol: For […] assays a human neuroblastoma cell line—SH-SY5Y (CRL-2266™, ATCC) and a human hepatocellular carcinoma cell line–HepG2, respectively have been used. Cells were seeded on 96-well plates at an initial density of 10,000 cells per well. Cells were cultured in standard conditions for 24 h and then study compounds were administrated at different concentrations (10–50 μM) for another 24 h. After incubation time cells viability was measured with MTT assay. For this purpose culture medium has been replaced for the fresh one and MTT reagent (3-(4,5-dimethylthiazol-2-yl)-2,5-diphenyltetrazolium bromide) has been added at the concentration 0.5 mg/mL. Cells were incubated with MTT reagent at 37 °C for 4 h. Then formazan crystals have been dissolved in DMSO solution and the absorbance has been measured at 570 nm. Experiments were conducted in triplicates. Values represent mean percent of viability (in the percent of control).

[8] = MTT cytotoxicity, skin panel model (melanocytes); assay type: cell-based; settings: Primary Epidermal Melanocytes (PCS-200-013, ATCC), human primary dermal melanocytes, highest tested concentration (50 µM), read-out: cell viability (% of control)
Protocol: Primary Epidermal Melanocytes were cultured in Dermal Cell Basal Medium (ATCC) supplemented with Adult Melanocyte Growth Kit Components (ATCC), HaCaT and BJ cells were cultured in Dulbecco’s modified Eagle’s medium (DMEM; New York, NY, USA) and supplemented with 10% fetal bovine serum (FBS; Gibco, New York, NY, USA). Cell maintenance was performed in a humidified incubator at 37 °C with 5% CO2. Cells were passage when the culture has reached approximately 80 to 90% confluence. Cells were seeded at density of 6 × 10^3 on 96-well plates. Following overnight culture, the cells were then treated with increasing doses of compounds and incubated for 24 h. Following cell exposure to each drug for 24 h, 10 µL MTT reagent (Sigma Aldrich, Darmstadt, Germany) was added to each well. After 4 hours incubation (37 °C, 5% CO2), the medium was aspirated and the formazan produced in the cells appeared as dark crystals in the bottom of the wells. Next, DMSO (dissolving solution) was added to each wells. Then the optical density (OD) of solution was determined at 570 nm on micro plate reader (Spectra iD3 Max, Molecular Devices; San Jose, CA, USA). Viability (% of control) was determined by dividing A570 of experimental wells by of A570 of control wells × 100%.

[9] = after 1 h irradiation at 500 W/m^2, formulation F2 (DMSO 4.8%)
[10] = after 1 h irradiation at 500 W/m^2, formulation F3 (DMSO 48%)
[11] = 2% (w/w) macrogol formulation F2 (DMSO 4.8%)
[12] = 2% (w/w) macrogol formulation F3 (DMSO 48%)
[13] = after 1 h irradiation at 500 W/m^2, formulation F1
[14] = 2% (w/w) macrogol formulation F1 (Triacetin 4.8%)

SMILES: CCOC(=O)CN1C(=O)N/C(=C\c2ccccc2)C1=O [Compound 2a, Ethyl (Z)-2-(4-benzylidene-2,5-dioxoimidazolidin-1-yl)acetate]
- melting point: 169 to 171 °C
- εmax [1]: 28460 M⁻¹ cm⁻¹
- λmax [1]: 316 nm
- Absorption Range [1]: 290–345 nm
- decrease of AUC after irradiation [2]: ~30%
- shift of λmax after irradiation [2]: 1 nm
- λmax pre-irradiation [2]: 316
- % of initial AUC post-irradiation [2]: 70.45%
- λmax post-irradiation [2]: 317
- solubility (in words) [3]: only slightly soluble
- improvement of the functional photostability ([4]; DMSO in formulation reduced from 48 to 4.8%): 31.1%
- % of Initial AUC [4, 9]: 62.42%
- % of Initial SPFin vitro [4, 9]: 55.49%
- % of Initial UVA PF [4, 9]: 68.96%
- % of Initial AUC [4, 10]: 46.72%
- % of Initial SPFin vitro [4, 10]: 33.25%
- % of Initial UVA PF [4, 10]: 37.87%
- percentage of photoisomer formation ([4]; two formulations differing in the content of DMSO (48 and 4.8%), which value belongs to which is not given): 48%
- SPFin vitro [5, 11]: 4.79 ± 0.02
- UVA PF [5, 11]: 2.40 ± 0.01
- UVA/UVB Ratio [5, 11]: 0.35 ± 0.00
- λc (critical wavelength) [5, 11]: 339 nm

SMILES: CCOC(=O)CN1C(=O)N/C(=C\c2ccc(OCC)cc2)C1=O [Compound 2c, Ethyl (Z)-2-(4-(4-ethoxybenzylidene)-2,5-dioxoimidazolidin-1-yl)acetate]
- melting point: 181 to 182 °C
- εmax [1]: 35610 M⁻¹ cm⁻¹
- λmax [1]: 336 nm
- Absorption Range [1]: 290–376 nm
- λmax pre-irradiation [2]: 336
- % of initial AUC post-irradiation [2]: 96.89%
- λmax post-irradiation [2]: 344
- Probable Transformation [6]: O-dealkylation
- half-life at 20 µM [6]: 33 min
- microsomal CLint at 20 µM [6]: 52 µL/min/mg
- % of Initial AUC [4, 10]: 34.13%
- % of Initial SPFin vitro [4, 10]: 44.37%
- % of Initial UVA PF [4, 10]: 35.83%
- SPFin vitro [5, 12]: 3.16 ± 0.05
- UVA PF [5, 12]: 4.68 ± 0.02
- UVA/UVB Ratio [5, 12]: 1.36 ± 0.01
- λc (critical wavelength) [5, 12]: 367 nm

SMILES: CCOC(=O)CN1C(=O)N/C(=C\c2ccc(OC)cc2OC)C1=O [Compound 2d, Ethyl (Z)-2-(4-(2,4-dimethoxybenzylidene)-2,5-dioxoimidazolidin-1-yl)acetate]
- melting point: 197 to 198 °C
- εmax [1]: 30700 M⁻¹ cm⁻¹
- λmax [1]: 349 nm
- Absorption Range [1]: 290–394 nm
- λmax pre-irradiation [2]: 349
- % of initial AUC post-irradiation [2]: 100.96%
- λmax post-irradiation [2]: 354
- Probable Transformation [6]: O-dealkylation
- half-life at 20 µM [6]: 15 min
- microsomal CLint at 20 µM [6]: 59 µL/min/mg
- % of Initial AUC [4, 10]: 58.87%
- % of Initial SPFin vitro [4, 10]: 75.69%
- % of Initial UVA PF [4, 10]: 51.45%
- decrease of tested parameters (SPFin vitro, UVA PF, AUC) after irradiation ([4]; formulation with DMSO 48% (F3), extreme values): 41.1%
- SPFin vitro [5, 12]: 2.00 ± 0.11
- UVA PF [5, 12]: 4.48 ± 0.38
- UVA/UVB Ratio [5, 12]: 2.59 ± 0.09
- λc (critical wavelength) [5, 12]: 386 nm

SMILES: CCOC(=O)CN1C(=O)N/C(=C\c2ccc(OC)c(OC)c2)C1=O [Compound 2e, Ethyl (Z)-2-(4-(3,4-dimethoxybenzylidene)-2,5-dioxoimidazolidin-1-yl)acetate]
- melting point: 198 to 200 °C
- εmax [1]: 30740 M⁻¹ cm⁻¹
- λmax [1]: 344 nm
- Absorption Range [1]: 290–381 nm
- λmax pre-irradiation [2]: 344
- % of initial AUC post-irradiation [2]: 97.8%
- λmax post-irradiation [2]: 351
- Probable Transformation [6]: O-dealkylation
- half-life at 20 µM [6]: 41 min
- microsomal CLint at 20 µM [6]: 21 µL/min/mg
- % of Initial AUC [4, 10]: 41.99%
- % of Initial SPFin vitro [4, 10]: 56.00%
- % of Initial UVA PF [4, 10]: 38.99%
- SPFin vitro [5, 12]: 2.50 ± 0.08
- UVA PF [5, 12]: 4.77 ± 0.24
- UVA/UVB Ratio [5, 12]: 1.95 ± 0.02
- λc (critical wavelength) [5, 12]: 379 nm

SMILES: Cc1ccc(/C=C2/C(=O)C3(C)CCC2C3(C)C)cc1 (centres unmarked) [Compound 4-MBC, 4-methylbenzylidene camphor, reference compound]
- εmax [1]: 25550 M⁻¹ cm⁻¹
- λmax [1]: 299 nm
- Absorption Range [1]: 290–332 nm
- λmax pre-irradiation [2]: 299
- % of initial AUC post-irradiation [2]: 87.76%
- λmax post-irradiation [2]: 303
- viability at 24 h, 50 µM [7]: < 31%
- viability at 24 h, 50 µM [8]: < 36%
- % of Initial AUC [4, 13]: 90.89%
- % of Initial SPFin vitro [4, 13]: 91.05%
- % of Initial UVA PF [4, 13]: 101.39%
- UVA PF [5, 14]: 1.08 ± 0.1
- UVA/UVB Ratio [5, 14]: 0.00 ± 0.00
- λc (critical wavelength) [5, 14]: 316 nm
- SPFin vitro ([5]; 2% (w/w) macrogol formulation F1 (Tween 20, PEG-400, PEG-1500, Triacetin 4.8%)): 5.59 ± 0.27
